Experimental data from patent US20250134870A1, “PATHWAY MODULATOR, PHARMACEUTICAL COMPOSITION HAVING SAME, USE THEREOF, AND THERAPEUTIC METHOD USING SAME” (Jiangsu Yahong Meditech Co., Ltd., priority 2021, published 2025).

Legend:
[1] = tested on: mesenteric lymph node immune cell subpopulations; assay: Flow cytometry of immune cell subpopulations and cytokines in mesenteric lymph nodes of DSS colitis mice (Examples 2, 4); format: in vivo, C57BL/6J mice; settings: 30 mg/kg PO QD × 8 days (Test group 1#) vs solvent group
Experimental: The experimental endpoint was 24 hours after administration on Day 8 for the positive drug control group and the Test group 1 #to Test group 7 #of Example 1; the experimental endpoint of the normal group and the solvent group was the same as that of the positive drug control group and Test group 1 #to Test group 7 #.
At the experimental endpoint, mesenteric lymphatic nodes were collected and treated as follows:
1) The mesenteric lymph nodes were gently grinded and filtered with a […] strainer (BD bioscience, Catalog No. 352350) to obtain a cell suspension, and the cells were counted.
2) The cells were suspended in a suspension solution (the suspension solution was prepared by the following process: diluting the cell activation mixture with a mixture of 90 v % 1640 medium and 10 v % fetal bovine serum to a concentration of 1×), the cell density was adjusted to 2.5×10^7/mL, and the cells were incubated at 37° C. for 5 hours. 3) The cells were washed with Dulbecco's Phosphate Buffered Saline, and stained with viable/dead stain (stain No. 12 in Table 5) at room temperature for 15 min to distinguish between viable cells and dead cells; the cells were washed with staining buffer (prepared by mixing fetal bovine serum and Dulbecco's Phosphate Buffered Saline at a volume ratio of 2:98), Fc block working solution (prepared by mixing Fc block and staining buffer at a volume ratio of 1:200) was added, and the cells were incubated at room temperature for 15 minutes.
4) The cells were surface labeled with 100 μL of antibody staining solution for flow cytometry without washing and incubated at 4° C. for 30 minutes.
5) The cells were washed once with staining buffer, 100 μL of cell fixative solution was added, and the cells were incubated at 4° C. overnight.
6) 200 μL of cell permeabilization solution was added and incubated at 4° C. for 30 minutes.
7) After washing with 250 μL of cell permeabilization solution, the cells were suspended with 100 μL of staining buffer and fluorescence was detected with a BD LSRFortessa instrument.
8) The cell subpopulations analyzed by flow cytometry included CD4+ T cell subpopulation, IL-17A+CD4+ T cell subpopulation, IFN-γ+CD4+ T cell subpopulation, TNF-α+CD4+ T cell subpopulation, CD25+FOXP3+ Treg cell subpopulation; CD8+ T cell subpopulation, IL-17A+CD8+ T cell subpopulation, IFN-γ+CD8+ T cell subpopulation, TNF-α+CD8+ T cell subpopulation; CD69+B220+ B cell subpopulation and NK1.1+CD107a+ NK cell subpopulation.

[2] = tested on: collagen-induced arthritis (CIA); assay: Collagen-induced arthritis (CIA) in mice: body weight, clinical score, AUC, incidence (Example 9); format: in vivo, DBA/1 mice; settings: 50 mg/kg PO QD, 2 weeks
Experimental: DBA/1 mice were anesthetized with isoflurane and injected subcutaneously with 50 μL of prepared collagen emulsion (containing 200 μg of CII) in the tail. The day of the first immunization was recorded as Day 0, and the subsequent days were marked sequentially. On Day 21, mice were injected with a same volume of collagen emulsion in the tail.
Dosing lasted for 14 consecutive days. Compounds were prepared every 3 days and stored at 4° C.
Since Day 28, mice were weighed three times a week and clinical scores were recorded until the end of the experiment.
Clinical score: scores were given according to different degrees of lesions (redness and swelling, arthrentasis) on a scale of 0-4 points, the highest score was 4 points for each limb and 16 points for each animal.
Experimental data were represented as mean±standard error. Body weight and clinical score were analyzed by two-way ANOVA, and difference with p<0.05 was considered as significant.

[3] = tested on: dextran sulfate sodium (DSS)-induced colitis; assay: DSS-induced colitis in mice, 3.1% DSS: body weight change and DAI (Example 11); format: in vivo, C57BL/6 mice; settings: 50 mg/kg, QD
Description: The experimental mice were housed in an SPF grade animal room for three days for adaptation, and randomly divided into 7 groups (6 model groups and 1 control group) of 10 mice in each group. Dosing of mice started on Day 0 and ended on Day 7.
The mouse enteritis model of this Example was established by DSS induction: mice in the model group were provided with a 3.1% DSS (dextran sulfate sodium, molecular weight 36,000-50,000) aqueous solution from Day 0 to Day 7, and the DSS aqueous solution was replaced with freshly prepared solution every day to prevent degradation. Mice in the normal control group were provided with normal water. The experimental period was 9 days, and the mice were euthanized and samples were collected at the experimental endpoint.
The DAI score was assessed daily. The DAI score consisted of 3 parts: body weight change, stool characteristics, and hematochezia (or occult blood) score, and the specific scoring criteria were as shown in Table 49. The DAI scoring of all mice was done by the same staff throughout the experiment.
Mice were euthanized at the experimental endpoint. The colon of mice was dissected, and photograph was taken, the length was measured, and the contents were removed before weighing.
The data were expressed as mean±standard error (X±s). Body weight change and disease activity score were statistically analyzed by two-way ANOVA and comparison between groups were performed by Dunnett's test. Other data were statistically analyzed by one-way ANOVA and comparison between groups were performed by Dunnett's test. All analyses were performed using GraphPad Prism software. * P<0.05, ** P<0.01, *** P<0.005, **** P<0.0001 vs. solvent group.

NCc1c[nH]c(=S)n1[C@H]1CCc2c(F)cc(F)cc2C1 [Nepicastat]
proportion of CD4+ T cell subpopulation [1]: reduce the proportion | proportion of CD25+FOXP3+ Treg cell subpopulation [1]: increase the proportion | secretion of IFN-γ by CD4+ T cell subpopulation [1]: reduce the secretion | secretion of IL-17A by CD4+ T cell subpopulation [1]: reduce the secretion | secretion of TNF-α by CD4+ T cell subpopulation [1]: reduce the secretion | effect on collagen-induced arthritis in mice [2]: had some known effects on collagen-induced arthritis in mice, but not as obvious as the positive control drug | symptoms caused by DSS-induced colitis (body weight loss, diarrhea, hematochezia) [3]: effectively alleviated the symptoms of body weight loss, diarrhea and hematochezia | DSS-induced body weight loss ([3]; vs solvent group): effectively alleviated DSS-induced body weight loss | disease activity score (DAI) ([3]; vs solvent group): significantly lower than that in the solvent group
